Like-named read-outs stand apart in the source and are kept apart here. [BNANC] = BNA^NC bridged nucleic acid nucleotide; {ThiolC6} = thiol C6 linker; d = 2'-deoxy (DNA)
Assays:
[1] = Endosomal escape enhancing activity of saponin; details: compared with SO1861
[2] = system: apoB; assay: apoB gene silencing in Huh7 cells (qPCR); assay type: cell-based, human; details: hepatocytes with very low ASGPR1 expression (Huh7)
Protocol: Primary hepatocytes which highly express ASGPR1 (ASGPR1^high) and Huh7 hepatocyte cell line (low ASGPR1 expression) were treated with a concentration range of trivalent-GalNAc-ApoBBNA (TrivalentGalNAc-ApoBBNA), either in absence or presence of 300 nM trivalent-GalNAc-SO1861 (TrivalentGalNAc-SPT001) (FIGS. 20A and B).
In addition, the primary hepatocytes and the liver cells of cell line Huh7 were contacted with a concentration series of a saponin-oligonucleotide-ASGPR ligand conjugate, i.e. trivalent GalNAc conjugated with both SO1861 (DAR is 4, in a dendron with four SO1861 molecules) and ApoB BNA (SEQ ID NO: 2) ((GalNAc)3-dSPT4-ApoB (FIG. 20E), or TrivalentGalNAc-ApoBBNA-dendron(SO1861)4), and apoB mRNA expression was assessed (FIGS. 20A and B).
ApoB gene silencing in HepG2 (ASGPR1+) cells or Huh7 (ASGPR1^+/−) was determined.
RNA from cells was isolated and analysed according to standard protocols (Biorad). qPCR primers that were used are indicated in Table A2.
RNA from cells was isolated using TRI Reagent® Solution (Thermo Scientific) according to the manufacturer's instruction. Conversion into cDNA was performed using iScript™ cDNA Synthesis Kit (BioRad) using standard protocols. […]

[3] = system: apoB; assay: apoB mRNA expression in primary human hepatocytes (qPCR); assay type: cell-based; details: for IC50: primary human hepatocytes, read-out: IC50 apoB RNA levels
Protocol: (§1) Cryopreserved primary human hepatocytes (Cytes Biotechnologies S.L., Spain) were thawed in hepatocyte thawing media (Cytes Biotechnologies S.L., Spain). […] Cells were pre-cultured for 4-6 hrs at 37° C. allowing for cell attachment to cell culture plates before the start of treatment. Plating medium was replaced by 315 μl or 108 μl maintenance media (Cytes Biotechnologies S.L., Spain), after which conjugates were added from a 10× concentrated stock solution in PBS. Plates were incubated for 72 hr at 37° C. being harvested for gene expression and cell viability analysis.
as §1

[4] = system: LDL-cholesterol; assay: Serum LDL-cholesterol (LDL-C) analysis in C57BL/6J mice; assay type: in vivo
Protocol: (§2) • i. Dose administration and in-life phase. Per group, 8 C57BL/6J male mice for treatment groups (in Study A, 14 mice in vehicle control group), approximately 6-7 weeks at arrival and 8-9 weeks at dosing, were dosed. The compounds, formulated in PBS or PBS alone (vehicle) according to Table A5 and Table A6, were dosed at 5 ml/kg in the tail vain (intravenously, i.v.), with dose volumes corresponding to the individual bodyweights. Where applicable, trivalent (GalNAc)3-SO1861 (EMCH) was co-administered at 5 ml/kg in the tail vain (i.v.) right after the trivalent GalNAc-ApoB conjugate. Animals were weighed weekly and clinical observations were performed 2-3 times daily within the first 48 hrs, and at least once daily thereafter until study end. • ii. Sampling of serum, liver, and kidney tissue. […] At the relevant inter-study post-dose timepoints, 3 animals per timepoint per treatment group (6 animals in the vehicle control group in Study A) were sacrificed to collect terminal bleeds and collect relevant organs, such as liver and kidney tissues for further analyses. at end of study, the remaining 2 animals (4 in the control group in Study A) per group were sacrificed. One half of the liver and one kidney was frozen and used for tissue RNA analysis.
LDL-cholesterol was measured in mouse serum, using an LDL-cholesterol specific two-step AU480 assay kit, respectively, from Beckman Coulter, with a photometric measurement according to the manufacturer's instructions.

[5] = In vivo tolerability (clinical observations, body weight) in C57BL/6J mice; details: Study A; doses and regimens of Table A5, i.v.
Protocol: as §2

[6] = system: apoB; assay: ApoB expression analysis in liver tissue of C57BL/6J mice (qRT-PCR); assay type: in vivo; details: for reduction of apoB RNA levels (gene expression) in liver compared to vehicle / reduction of apoB expression in liver compared to vehicle: Study A; for reduction of apoB RNA levels (gene expression) in liver compared to vehicle: 24 hrs
Protocol: as §2
The mRNA was isolated from frozen liver tissue using TRIzol® Reagent (Thermo Scientific) according to the manufacturer's instruction. Conversion into cDNA was performed using iScript™ cDNA Synthesis Kit (BioRad). ApoB expression levels and levels of specific liver housekeeping genes were determined using quantitative real-time PCR assays (qRT-PCR) using iTaq™ Universal SYBR® Green Supermix (BioRad) and the Light Cycler 480 (Roche Diagnostics, Rotkreuz, Switzerland) with specific DNA primers, listed in Table A4 (Study A) and Table A7 (Study B), respectively. Analysis was done by the ΔCt method to determine apoB expression relative to 2 liver-specific housekeeping control mRNAs. Each analysis reaction was performed in triplicate.

CC(=O)OC1C(C)OC(OC2C(C)OC(OC(=O)[C@]34CCC(C)(C)CC3C3=CCC5[C@@]6(C)CC[C@H](OC7OC(C(=O)O)C(O)C(OC8OCC(O)C(O)C8O)C7OC7OC(CO)C(O)C(O)C7O)[C@@](C)(C=O)C6CC[C@@]5(C)[C@]3(C)C[C@H]4O)C(OC3OC(C)C(OC4OCC(O)C(OC5OCC(O)C(O)C5O)C4O)C(O)C3O)C2O)C(O)C1OC1OCC(O)C(O)C1O (some centres unmarked) [SO1832]
endosomal escape enhancing activity towards an oligonucleotide (or protein toxin) in the endosome [1]: about equally active as SO1861

(GalNAc)3-dSPT4-ApoB: trivalent GalNAc conjugated with a dendron with four SO1861 moieties and ApoB BNA (SEQ ID NO: 2) via trifunctional linker (GCCTCAGTCTGCTTCGCACC; BNA oligo conjugated to trivalent GalNAc and dendron of four SO1861 saponins, further chemistry not given here)
response: apoB mRNA silencing ([2]; low nM, conjugate alone): not responsive | apoB gene (mRNA) silencing potency, factor higher than the GalNAc-ApoB BNA conjugate lacking covalently linked saponin ([3]; primary hepatocytes, concentration series): ~100

ApoB#02 BNA: BNA^NC antisense oligonucleotide 5′-GCattggtatTCA-3′ [SEQ ID NO: 12], fully phosphorothioated, 5′-Thiol C6 linker (GCATTGGTATTCA; sugars from the 5' end [BNANC]2 d8 [BNANC]3, all phosphorothioate, 5' {ThiolC6}, methylation of C not given here)
reduction of serum LDL-C compared to vehicle ([4]; Study A, 2 mg/kg, 72 hrs): ~50% | reduction of serum LDL-C compared to vehicle ([4]; Study A, 2 mg/kg, 336 hrs): ~40% | serum LDL-C levels compared to vehicle (in words) ([4]; Study A, 0.1, 1, or 2 mg/kg, 24 hrs): not noticeably reduced | serum LDL-C level ([4]; Study B, 2 mg/kg, 72 hrs post-dose): 2 mg/dL | IC50 ([3]; relative ApoB#02 BNA concentration, without transfection agent): 400 nM | IC50 ([3]; transfection with RNAi-MAX): 8 nM | tolerability (adverse findings, clinical observations) [5]: well tolerated | reduction of apoB RNA levels (gene expression) in liver compared to vehicle ([6]; 0.1 mg/kg i.v.): not noticeably reduced | reduction of apoB RNA levels (gene expression) in liver compared to vehicle ([6]; 1 mg/kg i.v.): ~15% | reduction of apoB RNA levels (gene expression) in liver compared to vehicle ([6]; 2 mg/kg i.v.): ~21% | reduction of apoB expression in liver compared to vehicle ([6]; 2 mg/kg, 72 hrs): 39% | reduction of apoB expression in liver compared to vehicle ([6]; 2 mg/kg, 336 hrs): 30% | apoB RNA levels (gene expression) in liver, % of vehicle control ([6]; Study B, 2 mg/kg, 72 hrs): 53%

TrivalentGalNAc-ApoBBNA: conjugate of trivalent GalNAc and the ApoB antisense BNA oligonucleotide ApoBBNA (SEQ ID NO: 2); L or S linker not stated (GCCTCAGTCTGCTTCGCACC; BNA oligonucleotide conjugated to trivalent GalNAc, pattern not explicitly stated, further chemistry not given here)
response: apoB mRNA silencing ([2]; low nM + trivalentGalNAc-SPT001): not responsive
